What all share (assay type): cell-based, human
For experiment [1], the system named is JEG-3 cells. Description: Influence of PIF and P4 on expression of HLA class I molecules (flow cytometry, Western blotting, surface antigen quantification). The note with it: 1 μg/ml P4, 24 hours.
Experimental: The cells were then incubated with the HLA-G specific mouse monoclonal antibody MEM-G9m followed by incubation with Alexa Fluor 488 conjugated antibody preparations. Fluorescence was detected by using BD Accuri C6 flow cytometer. The data was analyzed using a Flowing Software V2.5.1. […] Error bar indicates standard deviation from the mean. Statistical analysis was performed with SigmaPlot software. One way Analysis of Variance was employed to test the significance of differences among groups.
The collected cells were further tested for expression for class I HLA molecules by using specific monoclonal antibodies.
Treated and untreated JEG-3 cells, following exposure to test agents were detached, counted, and pelleted as described previously [14]. […] To quantify the final concentration of the proteins we used the Bradford assay following the previously described protocol with some modifications [15]. […] Five μl of each protein sample was then diluted 1:1 with PBS and incubated with the reading reagent at room temperature for 5 min. Finally, the protein concentration was determined using a spectrophotometer, extrapolating each absorbance value over the previously created standard curve. […] A pre-stained standard protein marker (Li-Cor Bioscience) was also loaded onto the gel and run parallel to the protein samples to be analyzed. […]
Experiment [2] concerns JEG-3 cells. Nature of the experiment: Effect of PIF and P4 on JEG-3 proteome (2-DE, spot analysis, mass spectrometry). Here is the method: Cell lysates and their protein concentration were prepared and assessed as previously described Frozen cell pellets were dissolved in hot lysis buffer (1% SDS, 100 mM Tris-HCl), and sonicated. Five percent of 2-mercaptoethanol was added. Samples were then dissolved in solubilisation buffer (8 M urea, 2.5 M thiourea, 4% 3-[(3-cholamidopropyl) dimethylammonio]-1-propanesuflate, 50 mM DTT, 24 mM spermine tetrachloride) at room temperature for 1 h. The samples were centrifuged at 12000×g for 30 min. To concentrate the protein samples, acetone precipitation was used. Once the supernatant was discarded the protein pellets were washed with a mixture of ice-cold methanol-chloroform and re-suspended in isoelectric focusing buffer (IEF) (8 M urea, 2.5 M thiourea, 4% 3-[(3-cholamidopropyl) dimethylammonio]-1-propanesuflate).
The IPG strips were then focused using an IPGphor system (BioRad, USA). Rehydrated filter wicks were placed between the electrodes and the IPG strip. […] After IEF, strips were rinsed in deionized water, and stored at −80° C. until the second dimensional […].
For second dimensional […], IPG strips were incubated in equilibrium buffer 1 [6 M/l urea, 20% w/v glycerol, 4% w/v SDS, 0.375 M/l Tris-HCL (pH 8.8), 5% 2-mercaptoethanol] for 15 min at room temperature. […] Strips were then rinsed in electrophoresis buffer (60.57 g Tris base, 288.27 g glycine, 20 g SDS, double distilled H2O up to 20 L). The second dimensional analysis was carried out using a Criterion gel system (Bio-Rad). Each strip was placed into the well of a 12% SDS-PAGE gel (Bio-Rad) and sealed with agarosc solution. Electrophoresis was carried out at 50 V for 30 min and following this at 150 V for 4-5 h. The gel was then fixed overnight in fixing solution (50% methanol, 5% acetic acid, 45% water), and stained using the silver staining protocol.
The gels were scanned and analyzed using SameSpots analysis software (Nonlinear dynamics Ltd). Digitized images from 12 silver-stained gels were analyzed for spot detection and quantification. Image analysis included spot detection, editing, background subtraction and spot matching. A master image was then created, and all spots in the other gels were matched to this master image both manually and digitally. The size of a protein, which approximates the volume of the spot, was calculated by using the software. Spots identified as differentially present were excised and analyzed using mass spectrometry (MS) analysis.
Identified spots were manually excised from the 2-DE gels using a disposable sterile scalpel spot cutter and washed in molecular biology grade water. Each spot was then subjected to in gel digestion alkylation, along with tryptic digestion so as to yield peptide fragments for MS analysis following previously described protocols.
Peptide digests were subjected to MS analysis at the sub-picomole level through the use of a matrix assisted laser desorption ionization-time of flight (MALDI-TOF MS) so as to generate peptide mass fingerprinting (PMF). The MALDI-TOF analysis was carried out using a Bruker Daltonics Reflex IV instrument using a linear mode with a laser power attenuation setting at 30, as described previously.
The expression data were pre-processed by mean-centering (by division and medians), and over median normalized data. A heatmap was generated via hierarchical clustering for examining protein expression and treatment (http://cran.r-project.org). The generation of a heatmap for median centered protein expression data with horizontal hierarchical clustering of different proteins utilized the median linkage agglomeration method and vertical hierarchical clustering of treatment conditions, using complete linkage agglomeration. A correlation distance metric was used for clustering data.

Experiment [3] concerns JEG-3 cells. Nature of the experiment: ELISA for cytokine secretion by JEG-3 cells. The note with it: JEG-3, serum-free media, 24 hours, P4 1 μg/ml. Here is the method: At the end of the experiments the supernatant was collected and analyzed for cytokine levels. The concentrations of tumor necrosis factor alpha (TNF-a), interleukin (IL)-1, IL-8, IL-10, interferon gamma (IFN-γ), transforming growth factor beta 1 (TGF-[…]) and granulocyte macrophage colony-stimulating factor (GM-CSF) were measured using ELISA kits (eBioscience), following the manufacturer's instructions.

The mark [4] stands for this setting: P4 1 μg/ml or PIF 200 nM, 24 hours.

Regarding `CC(=O)[C@H]1CC[C@H]2[C@@H]3CCC4=CC(=O)CC[C@]4(C)[C@H]3CC[C@]12C` [P4, Progesterone], in the experiment with JEG-3 cells [1], the “levels of HLA-G, -E, -F and -C” value is “increased levels of HLA-G, -E, -F and -C”. In the experiment with JEG-3 cells [2] (setting [4]), the “Average Normalized Volumes, ATP5B (spot 71)” value was 283.644; the “Average Normalized Volumes, BBB (spot 92)” value stood at 544.421; the “Average Normalized Volumes, CD59 (spot 51)” value was determined as 388.079; the “Average Normalized Volumes, CLIC3 (spot 69)” value amounted to 220.958. Further, in the experiment on JEG-3 cells [2] (setting [4]), the “Average Normalized Volumes, DCBD2 (spot 67)” value stood at 413.865; the “Average Normalized Volumes, EGFR (spot 30)” value stood at 313.949; the “Average Normalized Volumes, FOXP3 (spot 98)” value is on record as 1035.457; the “Average Normalized Volumes, HLAG (spot 89)” value came out at 961.078. Further, in the experiment on JEG-3 cells [2] (setting [4]), the “Average Normalized Volumes, HS74L (spot 8)” value is recorded as 407.206; the “Average Normalized Volumes, HSP71 (spot 2)” value was 328.658; the “Average Normalized Volumes, LMNA (spot 34)” value worked out at 276.712; the “Average Normalized Volumes, PDIA3 (spot 24)” value is recorded as 425.280. In addition, in the experiment on JEG-3 cells [2] (setting [4]), the “Average Normalized Volumes, PRDX2 (spot 66)” value worked out at 144.399; the “Average Normalized Volumes, PRGR (spot 55)” value amounted to 277.710; the “Average Normalized Volumes, ZSC21 / TTP (spot 32)” value was found to be 123.015. Further, the “number of differentially expressed proteins up-regulated (of 19)” value in the experiment on JEG-3 cells [2] (hierarchical clustering, vs control cells) is given as “five”. In the experiment on JEG-3 cells [3], the IFN-γ secretion is 10 pg/mL and the TNF-α secretion is 1 pg/mL. For the same compound, in the experiment with JEG-3 cells [3] (PIF 200 nM, mean ± SEM), the GM-CSF secretion stood at 310 ± 36.3 pg/mL, the IL-1β secretion was determined as 334 ± 27.7 pg/mL, the IL-8 secretion was found to be 685 ± 58.2 pg/mL and the TGF-β1 secretion worked out at 398 ± 32.4 pg/mL.
